The record followed here is US9365597B2, “Mitochondria-targeted inhibitors of cytochrome c peroxidase for protection from apoptosis” (Brock University, priority 2011, dated 2016).

In assay [1] the test system is mouse embryonic cells. As to the kind of experiment: Clonogenic survival of mouse embryonic cells after γ-irradiation. It counts as cell-based. As to conditions: 2.5 μM added 30 min post γ-irradiation; single-hit multi-target model; untreated 1.33±0.08. The protocol: Cells were plated in 35-mm dishes with 2 ml culture medium at the appropriate density (between 100 and 1000 cells per dish). TPP-ISA (2.5 μM) or TPP-IOA (2.5 μM) was added to the cell culture 30 min post γ-irradiation. Medium containing TPP-ISA or TPP-IOA was replaced with fresh complete culture medium after 4 hrs. Colonies were fixed and stained with 0.25% crystal violet and 10% formalin (35% v/v) in 80% methanol for 30 min after a 7-day incubation, and those with >50 cells were scored as survivors. The surviving fraction was calculated as the plating efficiency (=number of colonies counted/number of cells seeded×100%) of samples relative to that of control. The data were fitted to a single-hit multi-target model. D0—the dose needed to reduce cell surviving fraction to 37% (1/e)—was estimated from the curves fitted to evaluate the radiomitigative effects of TPP-ISA and TPP-IOA.

Assay [2] has as its system mouse embryonic cells. As to the kind of experiment: γ-Irradiation induced apoptosis in mouse embryonic cells (PS externalization Annexin V/PI, caspase 3/7, cyt c release). It counts as cell-based. As to conditions: for necrotic cells (PI-positive, Annexin V-positive) after irradiation and treatment / apoptotic cells (PI-negative, Annexin V-positive) after irradiation and treatment: 10 Gy; for necrotic cells (PI-positive, Annexin V-positive) after irradiation and treatment: irradiated only 12.9%; for apoptotic cells (PI-negative, Annexin V-positive) after irradiation and treatment: irradiated only 28.9%. The method, then: Mouse embryonic cells were seeded on a 35 mm dish at a cell density of 5×10^4/dish, and allowed to attach overnight. The cells were γ-irradiated at a dose of 10 Gy using a Shepherd model 143-45A irradiator (J.L. Shepherd & Associates, CA). Ten min after irradiation, different concentrations of TPP-ISA or TPP-IOA (2.5 and 5 μM) were added and cells were incubated at 37° C. in 5% CO2 for 48 h. Then, cells were harvested for measuring phosphatidylserine externalization by an Annexin V/PI kit and caspase 3/7 activity using a Caspase-Glo® 3/7 Assay kit. Data are means±S.D., n=3. *p<0.01 vs. irradiated only cells.
Phosphatidylserine externalization was determined by an Annexin V-FITC apoptosis detection kit (Biovision) according to the manufacturer's instructions.
Caspase-3/7 activity was measured using a luminescence Caspase-Glo 3/7 assay kit (Promega) according to the manufacturer's instructions.
Cells were collected after 48 h post-irradiation incubation and resuspended in lysis buffer containing 0.05% digitonin for 4 min on ice. Supernatants were collected after centrifugation for 10 min at 10,000 g. Equal amounts of protein were subject to 15% SDS-PAGE, transferred onto a nitrocellulose membrane, and probed with antibodies against cyt c (clone 7H, 8.2; C12, BD Pharmingen) or actin (Novus) (loading control) followed by horseradish peroxidase-coupled detection. The protein band profile was analysed by densitometry using Labworks image acquisition and analysis software (UVP).

For assay [3], the system named is caspase-3 activation in S-100 from mouse embryonic cells. The assay is described as follows: Cell-free apoptosis system (S100): caspase-3 activation by exogenous cyt c/dATP. It counts as biochemical. As to conditions: S100, 1 mM dATP, 1 μM cyt c, 90 min. The protocol:
The cytosol extracts (S100) of mouse embryonic cells were obtained as described previously^38 with minor modifications. Briefly, the cells were washed twice in cold phosphate-buffered saline, pH 7.4, and the resulting pellet was resuspended in buffer containing 25 mM HEPES-KOH, pH 7.0, 10 mM KCl, 1.5 mM MgCl2, 1 mM EDTA, 1 mM EGTA, 1 mM DTT, 0.1 mM phenylmethylsulfonyl fluoride, 0.05% digitonin, and 1% protease inhibitor mixture for 2 min at 4° C. Cells were centrifuged at 4° C. for 10 min at 10,000×g. The resulting supernatant was further centrifuged at 4° C. for 50 min at 100,000×g. The supernatant was collected as S-100 and kept at −80° C. until further use. For caspase-3 activation, S100 (5 μg of protein/μl) was incubated with 1 mM dATP and 1 μM cyt c for 90 min at 37° C. The caspase-3 activity was evaluated using Enzchek caspase-3 assay kit as described in the manufacturer's manual (Invitrogen, Carlsbad, Calif.).

The subject of assay [4] is mouse embryonic cells. The assay is described as follows: Superoxide production in mouse embryonic cells (dihydroethidium, flow cytometry). As to conditions: cells with or without radiation treatment (10 Gy); 2.5 and 5 μM, 18 hrs. It counts as cell-based. The method, then: Cells were γ-irradiated at a dose of 10 Gy and then incubated with different concentrations of TPP-IOA or TPP-ISA (2.5 and 5 μM) for 18 hrs. To estimate superoxide generation, cells were incubated with 5 μM of dihydroethidium (DHE) for 30 min at 37° C. Collected cells were re-suspended in phosphate buffered saline (PBS) and fluorescence of 2-hydroxyethidium was analyzed using FACScan supplied with CellQuest software. Data are means±S.D., n=3. *p<0.01 vs. control cells (without any treatment).
A superoxide-meditated oxidation-sensitive fluorogenic dye, dihydroethidium (DHE), was utilized for assessments of superoxide production. Briefly, cells were incubated with 5 μM of DHE for 30 min. Cells were collected by trypsinization and re-suspended in PBS. The fluorescence of 2-hydroxyethidium was measured using a FACScan flow cytometer (BD Biosciences, San Jose, Calif.) supplied with the CellQuest software. Mean fluorescence intensity from 10,000 cells was acquired using a 585/42-nm band-pass filter.
A general note: Flow cytometry measures light scatter and fluorescence of single cells or particles in a stream.

For assay [5], the target named is T1, cyt c/TLCL (Equus caballus, UniProt P00004).
T1 construct: purchased Sigma (St. Louis, Mo.)
T1 sequence (P00004 2-105 limits assumed): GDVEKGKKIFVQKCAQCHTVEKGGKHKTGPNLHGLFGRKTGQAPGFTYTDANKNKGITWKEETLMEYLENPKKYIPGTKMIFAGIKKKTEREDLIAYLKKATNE
The assay is described as follows: cyt c/H2O2-induced TLCL (tetra-linoleoyl-cardiolipin) peroxidation, ESI-MS. It counts as biochemical. As to conditions: for inhibition of cyt c/H2O2-induced oxidation of TLCL: cyt c 4 μM, TLCL 100 μM, H2O2 80 μM, 10 min, 37° C.; for oxidation of TLCL at ratio of cyt c to compound of 1:20: cyt c:compound 1:20. The method, then:
For measurement of TLCL oxidation, cyt c (4 μM) was incubated with TLCL (100 μM) containing liposomes (TLCL/cyt c ratio-20:1) and H2O2 (80 μM) for 10 min at 37° C. The reaction was stopped by catalase (150 units/ml) and CL was extracted using Folch procedure^37. Analysis of (hydroperoxy- and hydroxy-) oxidized phospholipid species was performed as described^30. TLCL and its oxidized molecular species were extracted by the Folch procedure^37 and separated on a normal phase column (Luna 3 μm Silica 100A, 150×2 mm, Phenomenex, Torrance Calif.). […] The ESI probe was operated at a voltage differential of 3.5-5.0 kV in the negative ion mode. Capillary temperature was maintained at 150° C. Using range zoom (200-2000 m/z) in negative ion mode, the centroid spectra were acquired.
Small unilamellar liposomes were prepared from dioleoylphosphatidylcholine (DOPC) and TOCL (1:1 ratio) or DOPC and TLCL (4:1 ratio) by sonication in HEPES buffer (20 mM with 100 μM diethylene triamine pentaacetic acid (DTPA) (pH 7.4) 3×60 sec, relaxation time 2 min, 4° C.).

The subject of assay [6] is C57BL/6NTac female mice. The assay is described as follows: Survival of mice after 9.25 Gy total body irradiation, linear accelerator. As to conditions: for Overall Survival (52 days): p versus irradiated mice / Survival Over First 20 Days: p versus irradiated mice: log-rank. It counts as in vivo, mouse.
Protocol: C57BL/6NTac female mice were exposed to total body irradiation to a dose of 9.25 Gy using a linear accelerator (n=10-23 mice per group). The mice were injected i.p. with TPP-IOA (5 mg per kg body weight in 100 μl of water containing 25% ethanol) at 1 h or 10 min before irradiation or 10 min, 5 or 24 h after irradiation. Mice exposed to: total body irradiation at the dose of 9.25 Gy only (black circles); to total body irradiation at the dose of 9.25 Gy and injected with TPP-IOA (5 mg per kg body weight) 10 min (grey circles), 5 h (downward-pointing triangles) and 24 h (lower grey squares) thereafter. Mice injected with TPP-IOA (5 mg per kg body weight) 10 min (upper grey squares) and 1 h (upward-pointing triangles) before total body irradiation (9.25 Gy).
C57BL/6NTac female mice were anaesthetized with Nembutal (1 mg per 20 g mouse), irradiated to a total body dose of 9.25 Gy using either a Shepherd Mark 1 Model 68 cesium irradiator at a dose rate of 80 cGy min^−1 (31-35 mice per group) or a Varian TrueBeam linear accelerator (Varian Medical Systems) at 100 monitor units or 100 cGy min^−1 using 6 MV photons with a 40 cm×40 cm field at 100 SSD (10-23 mice per group). Mice were injected intraperitoneally (i.p.) with 5 mg per kg body weight of TPP-IOA in a 100 μl volume of water containing 25% ethanol at 1 h before irradiation, 10 min before irradiation, 10 min after irradiation, 5 h after irradiation and 24 h after irradiation. Other groups were injected i.p. with 2.5 mg per kg body weight of TPP-IOA or 5 mg per kg body weight of TPP-ISA 10 min after irradiation. The mice were followed for the development of haematopoietic syndrome (at which time they were killed).
The log-rank test was used for three analyses: the comparison of overall survival that is defined as the time from the date of radiation to the date of death for all mice under study; the comparison of short-term survival over the first 20 days, that is, the overall survival count at 20 days; and the comparison of conditional survival in mice surviving 20 or more days, that is, the time from the date of radiation to the date of death for all mice who survived 20 days or longer after radiation. All these comparisons were made between each of the treated groups and the radiation-only control group.
Setting [7] is: 2.5 mg/kg body weight i.p., 10 min after 9.25 Gy.
The mark [8] stands for this setting: 5 mg/kg body weight i.p., 10 min after 9.25Gy.
Setting [9] is: 5 mg/kg body weight i.p., 10 min before 9.25Gy.
Where [10] appears, read: 5 mg/kg body weight i.p., 1 hr before 9.25Gy.
Where [11] appears, read: 5 mg/kg body weight i.p., 5 hr after 9.25Gy.
The mark [12] stands for this setting: 5 mg/kg body weight i.p., 24 hr after 9.25Gy.

SMILES strings stand for the structures. Where only a bound is given, the exact number is not on record here.

`CCCCCCC(C/C=C\CCCCCCCC(=O)OCCC[P+](c1ccccc1)(c1ccccc1)c1ccccc1)n1ccnc1.[Br-]` (stereo not drawn) [TPP-IOA]: in assay [1], the “D0, the dose needed to reduce cell surviving fraction to 37% (1/e)” value was determined as 1.71±0.05. Moreover, in assay [2], the “necrotic cells (PI-positive, Annexin V-positive) after irradiation and treatment” value turned out to be 8.2%; the “apoptotic cells (PI-negative, Annexin V-positive) after irradiation and treatment” value is given as 14.8%. Besides, in assay [2] (versus irradiated only cells), the “decrease in the number of apoptotic cells” value was “twofold” and the “reduction in the number of necrotic cells” value came out at 1.6 fold. Further, the “caspase activation caused by exogenously added cyt c” value in assay [3] is “completely insensitive”. Also, in assay [4], the “effect on superoxide production” value is “neither TPP-IOA nor TPP-ISA had any effect”. In addition, in assay [5], the “inhibition of cyt c/H2O2-induced oxidation of TLCL” value is given as “inhibited cyt c/H2O2-induced oxidation of TLCL in a concentration-dependent manner” and the “oxidation of TLCL at ratio of cyt c to compound of 1:20” value is given as “completely blocked”. In assay [6] (2.5 mg per kg body weight, 10 min after irradiation), the “mitigating the mice against irradiation, lower dose” value is recorded as “not effective”. In assay [6] (setting [7]), the “Overall Survival (52 days): Median Survival (95% Confidence Interval)” value (from here on “Overall Survival … (95% Confidence Interval)”) is listed as 17 (14, —) days; the “Survival Over First 20 Days: Median Survival (95% Confidence Interval)” value is 17 (14, —) days; the “Overall Survival (52 days): p versus irradiated mice” value was found to be 0.0525; the “Survival Over First 20 Days: p versus irradiated mice” value is 0.0525. Besides, in assay [6] (5 mg per kg, 5 or 24 h after irradiation), the “survival when given at later time points after irradiation” value was “significant increase in survival”. In addition, in assay [6] (5 mg per kg, 10 min or 1 h before irradiation), the “protection when given before irradiation” value was “protective”. In assay [6] (setting [8]), the “Overall Survival … (95% Confidence Interval)” value is “— (—, —)”; the “Survival Over First 20 Days: Median Survival (95% Confidence Interval)” value is “— (—, —)”; the “Overall Survival (52 days): p versus irradiated mice” value was less than 0.0001; the “Survival Over First 20 Days: p versus irradiated mice” value is on record as less than 0.0001. Also, in assay [6] (setting [9]), the “Overall Survival (52 days): p versus irradiated mice” value was found to be 0.0009 and the “Survival Over First 20 Days: p versus irradiated mice” value stood at 0.0009. Also, in assay [6] (setting [10]), the “Overall Survival (52 days): p versus irradiated mice” value was determined as 0.0230 and the “Survival Over First 20 Days: p versus irradiated mice” value was found to be 0.0230. For the same compound, in assay [6] (setting [11]), the “Overall Survival (52 days): p versus irradiated mice” value is on record as 0.0030 and the “Survival Over First 20 Days: p versus irradiated mice” value was determined as 0.0030. Besides, in assay [6] (setting [12]), the “Overall Survival … (95% Confidence Interval)” value was 18 (13, —) days; the “Survival Over First 20 Days: Median Survival (95% Confidence Interval)” value is 18 (13, —) days; the “Overall Survival (52 days): p versus irradiated mice” value is given as 0.0416; the “Survival Over First 20 Days: p versus irradiated mice” value was 0.0416.
`CCCCCCC(CCCCCCCCCCC(=O)OCCC[P+](c1ccccc1)(c1ccccc1)c1ccccc1)n1ccnc1.[Br-]` (stereo not drawn) [TPP-ISA]: the “D0, the dose needed to reduce cell surviving fraction to 37% (1/e)” value in assay [1] stood at 1.67±0.06. Besides, in assay [2], the “necrotic cells (PI-positive, Annexin V-positive) after irradiation and treatment” value came to 7.8%; the “apoptotic cells (PI-negative, Annexin V-positive) after irradiation and treatment” value was determined as 13.9%. Moreover, the “caspase activation caused by exogenously added cyt c” value in assay [3] was “completely insensitive”. Also, the “effect on superoxide production” value in assay [4] was “neither TPP-IOA nor TPP-ISA had any effect”. In assay [5], the “inhibition of cyt c/H2O2-induced oxidation of TLCL” value is given as “inhibited cyt c/H2O2-induced oxidation of TLCL in a concentration-dependent manner” and the “oxidation of TLCL at ratio of cyt c to compound of 1:20” value is “completely blocked”. In addition, in assay [6] (setting [8]), the “Overall Survival (52 days): p versus irradiated mice” value is on record as 0.0114 and the “Survival Over First 20 Days: p versus irradiated mice” value was determined as 0.0114.
